# Laboratory results as given in patent US20060130266A1, “Dermal drug delivery system” (priority 2004, published 2006).
# Marks after values point to notes of the source that are not given here.
# Columns and labels:
# [1] = octanol/water; cited from earlier work
# [2] = In vitro skin permeation, Franz cell infinite dose study (optimisation studies with MP, BP, CF); conditions: BP; for EF enhancement factor: flux vs untreated skin
# [3] = Table 4b, brush A 450 Nm^−2, 20 s, 80 rpm
# [4] = Table 4b, brush A 450 Nm^−2, 45 s, 80 rpm
# [5] = Table 4b, brush A 750 Nm^−2, 45 s, 80 rpm
# [6] = Table 4b, brush A 1200 Nm^−2, 45 s, 80 rpm
# [7] = Table 5c, EtoH/PBS (50% ethanol donor solution)
# [8] = Table 5c, brush A 450 Nm^−2, 45 s
# [9] = Table 5c, brush B 300 Nm^−2, 15 s
# [10] = Table 5c, brush B 300 Nm^−2, 25 s
# [11] = Table 5c, brush B 450 Nm^−2, 15 s
compound,measurement,setting,value
"CCCCOC(=O)c1ccc(O)cc1 [BP, Butyl paraben]",Log P (o/w),[1],3.57
same,JS flux,[2]; [3],6.60 ± 0.49* 10^−3 μg/cm/s
same,KP permeability coefficient,[2]; [3],3.30 ± 0.25 10^−5 cm/s
same,TL lag time,[2]; [3],37.10 ± 2.26 min
same,EF enhancement factor,[2]; [3],1.74
same,JS flux,[2]; [4],7.50 ± 0.75* 10^−3 μg/cm/s
same,KP permeability coefficient,[2]; [4],3.75 ± 0.37 10^−5 cm/s
same,TL lag time,[2]; [4],25.22 ± 2.17 min
same,EF enhancement factor,[2]; [4],1.97
same,JS flux,[2]; [5],8.26 ± 0.89* 10^−3 μg/cm/s
same,KP permeability coefficient,[2]; [5],4.13 ± 0.45 10^−5 cm/s
same,TL lag time,[2]; [5],26.34 ± 1.48 min
same,EF enhancement factor,[2]; [5],2.17
same,JS flux,[2]; [6],8.62 ± 1.05* 10^−3 μg/cm/s
same,KP permeability coefficient,[2]; [6],4.31 ± 0.52 10^−5 cm/s
same,TL lag time,[2]; [6],26.39 ± 1.30 min
same,EF enhancement factor,[2]; [6],2.26
same,JS flux,"[2]; Table 4b, delipidised skin",15.95 ± 1.55* 10^−3 μg/cm/s
same,KP permeability coefficient,"[2]; Table 4b, delipidised skin",7.98 ± 0.78 10^−5 cm/s
same,TL lag time,"[2]; Table 4b, delipidised skin",18.58 ± 3 min
same,EF enhancement factor,"[2]; Table 4b, delipidised skin",4.20
same,KP permeability coefficient,"[2]; Table 4b, untreated skin",1.90 ± 0.23 10^−5 cm/s
same,TL lag time,"[2]; Table 4b, untreated skin",33.47 ± 8.79 min
same,KP permeability coefficient,[2]; [7],9.24 ± 0.80 10^−5 cm/s
same,TL lag time,[2]; [7],26.43 ± 5.05 min
same,EF enhancement factor,"[2]; Table 5c, EtoH/PBS",3.75
same,JS flux,[2]; [8],8.38 ± 1.09* 10^−4 μg/cm/s
same,KP permeability coefficient,[2]; [8],4.19 ± 0.54 10^−5 cm/s
same,TL lag time,[2]; [8],24.51 ± 5.50 min
same,EF enhancement factor,[2]; [8],1.69
same,JS flux,[2]; [9],6.16 ± 0.89* 10^−4 μg/cm/s
same,KP permeability coefficient,[2]; [9],3.08 ± 0.44 10^−5 cm/s
same,TL lag time,[2]; [9],22.65 ± 3.22 min
same,EF enhancement factor,[2]; [9],1.25
same,JS flux,[2]; [10],10.47 ± 0.96* 10^−4 μg/cm/s
same,KP permeability coefficient,[2]; [10],5.23 ± 0.48 10^−5 cm/s
same,TL lag time,[2]; [10],23.06 ± 2.19 min
same,EF enhancement factor,[2]; [10],2.12
same,KP permeability coefficient,[2]; [11],6.34 ± 1.03 10^−5 cm/s
same,TL lag time,[2]; [11],14.55 ± 5.18 min
same,EF enhancement factor,[2]; [11],2.57
same,KP permeability coefficient,"[2]; Table 5c, delipidised skin",10.27 ± 1.43 10^−5 cm/s
same,TL lag time,"[2]; Table 5c, delipidised skin",8.17 ± 5.41 min
same,EF enhancement factor,"[2]; Table 5c, delipidised skin",4.16
same,KP permeability coefficient,"[2]; Table 5c, tapestripped skin",7.80 ± 1.84 10^−5 cm/s
same,TL lag time,"[2]; Table 5c, tapestripped skin",34.78 ± 4.44 min
same,EF enhancement factor,"[2]; Table 5c, tapestripped skin",3.16
same,KP permeability coefficient,"[2]; Table 5c, untreated skin",2.47 ± 0.11 10^−5 cm/s
same,TL lag time,"[2]; Table 5c, untreated skin",35.84 ± 1.98 min
